Assay results from PubChem BioAssay AID1626 (SRMLSC, 2009).

Tested on: M. tuberculosis H37Rv growth inhibition
Test: M. tuberculosis H37Rv growth inhibitors, H37Rv strain (AID 1626)
Conditions: for IC90: measured here: IC90 against H37Rv; for CC50: measured here: Vero cell cytotoxicity

O=C1c2cccc3c([N+](=O)[O-])ccc(c23)C(=O)N1CC1CCCO1 (stereo not given)
IC50: 3.76 µM | IC90: 12.5 µM | CC50: 18.1 µM

Nc1c(C(=O)NCc2ccccc2)c2nc3ccccc3nc2n1CCCN1CCOCC1
IC50: 12.7 µM | IC90: 17.1 µM | CC50: > 40 µM

Cc1ccccc1/C=c1\s/c(=C\C(=O)C(C)(C)C)[nH]c1=O
IC50: 52.8 µM | IC90: > 100 µM | CC50: 17.2 µM

Cc1cc(Cl)n2c(nc3cc(F)c(F)cc32)c1C#N
IC50: 3.98 µM | IC90: 10.5 µM | CC50: 2.29 µM

O=C(CC(SCc1ccco1)c1ccc(O)cc1)c1cccs1 (stereo not given)
IC50: 27.4 µM | IC90: > 100 µM | CC50: > 40 µM

O=C(NCCc1c[nH]c2ccccc12)c1cc2ccccc2oc1=O
IC50: < 0.195 µM | IC90: < 0.195 µM

Cc1nc(SCC(=O)Nc2cc(C)on2)c2c3c(sc2n1)CCCC3
IC50: < 0.195 µM | IC90: 13.8 µM | CC50: 21 µM

COC(=O)CSc1nc2ccc(NC(=O)c3ccccc3C(=O)N3CCOCC3)cc2s1
IC50: 8.89 µM | IC90: > 100 µM

Cc1ccc(Nc2c(-c3ccccn3)nc3cccc(C)n23)cc1
IC50: 2.72 µM | IC90: 3.06 µM | CC50: 1.18 µM

O=C(Nc1ccc(F)c(Cl)c1)Nc1csc2ccccc12
IC50: 54.9 µM | IC90: > 100 µM | CC50: 7.06 µM

COc1ccc(C(CCN2CCCCC2)c2c(OC)cc(OC)c3c(-c4ccccc4)cc(=O)oc23)cc1 (stereo not given)
IC50: 7.16 µM | IC90: 10.9 µM | CC50: 16 µM

O=C1C2C(c3ccccc3)(C(=O)N1c1ccc(Cl)cc1)C2(c1ccccc1)c1ccccc1 (stereo not given)
IC50: 22.4 µM | IC90: > 100 µM | CC50: > 40 µM

CCOc1ccc2c3c(c(=O)oc2c1OCC)CCCC3
IC50: 7.11 µM | IC90: 12.8 µM

Cc1ccc(C)c(N=Nc2nc3ccccc3n2C)c1
IC50: 1.33 µM | IC90: 1.7 µM | CC50: > 40 µM

CCOc1ccc(N2CC(=O)Nc3ccccc3NCC2=O)cc1
IC50: 12.5 µM | IC90: > 100 µM

CCCCC(=O)c1ccc(O)cc1
IC50: 15.2 µM | IC90: > 100 µM

O=C(OCc1nc2ccccc2s1)c1ccco1
IC50: 32.7 µM | IC90: > 100 µM

Cc1ccc2c(c1)c1c3n2CCN=C3CCC1
IC50: 7.43 µM | IC90: 15.8 µM

O=C1CSc2ccc(C(=O)Nc3cccc(S(=O)(=O)Nc4ccc(Br)cc4)c3)cc2N1
IC50: 7.03 µM | IC90: 11.9 µM | CC50: 16.5 µM

O=C(Nc1nc(-c2ccc(-c3ccccc3)cc2)cs1)c1cnccn1
IC90: > 100 µM | CC50: > 40 µM

O=C(OC(c1ccccc1)c1nccc2ccccc12)c1cc([N+](=O)[O-])cc([N+](=O)[O-])c1 (stereo not given)
IC50: 2.14 µM | IC90: 4.48 µM | CC50: > 40 µM

COc1ccc(CCNCC(O)Cn2c3ccccc3c3ccccc32)cc1OC (stereo not given)
IC50: 10.6 µM | IC90: 15.2 µM | CC50: 11.8 µM

CCOC(=O)C1=Nc2ccccc2C1=[N+]=[N-]
IC50: 0.906 µM | IC90: 1.23 µM | CC50: 36.7 µM

O=C1C=C(Nc2ccccc2)c2ccccc2C1=O
IC50: 12.3 µM | IC90: 21.2 µM | CC50: 13.7 µM

CCOC(=O)CNc1ccc(C(=O)OCC)cc1[N+](=O)[O-]
IC50: 3.23 µM | IC90: > 100 µM

CCCOC(=O)c1ccc(NC(=O)c2ccc(Br)o2)cc1
IC50: 0.683 µM | IC90: 2.82 µM

N#Cc1ncc(-c2ccc3c(c2)OCCOCCOCCOCCOCCO3)nc1C#N
IC50: 1.8 µM | IC90: 3.08 µM | CC50: 22.6 µM

CCCc1nn(C)c(C(=O)Nc2ccc(CC)cc2)c1Cl
IC90: > 100 µM

COc1ccc(OC(=O)c2cnn(-c3ccccc3)c2C)cc1
IC50: 71.2 µM | IC90: > 100 µM

O=C(OCC(=O)c1c[nH]c2ccccc12)c1ccc([N+](=O)[O-])s1
IC50: 1.21 µM | IC90: 1.93 µM

COc1ccc(NCC(=O)Nc2ccc(C#N)cc2)cc1Cl
IC50: 8.28 µM | IC90: > 100 µM | CC50: > 40 µM

CC1=CC(C)(C)Nc2ccc(OC(=O)c3ccco3)cc21
IC50: 54.4 µM | IC90: > 100 µM | CC50: > 40 µM

Cc1ccc(NC(=O)CNCc2ccccc2)cc1Br
IC50: 32.3 µM | IC90: > 100 µM

Fc1ccc(C(OCCN2CCN(CCCc3ccccc3)CC2)c2ccc(F)cc2)cc1
IC50: 4.22 µM | IC90: 5.59 µM | CC50: 19.2 µM

COC(=O)CN1C(c2cccc(Cl)c2)=Nc2ccc(Cl)cc2C1c1ccccc1 (stereo not given)
IC50: 11.9 µM | IC90: 13.6 µM

Oc1ccccc1CNc1cnc2ccccc2c1
IC50: 11.1 µM | IC90: > 100 µM | CC50: > 40 µM

O=C(Nc1ncc(Cc2ccccc2)s1)c1cccs1
IC50: 49 µM | IC90: > 100 µM | CC50: > 40 µM

COc1ccc(Nc2ccccc2N)cc1
IC50: 1.05 µM | IC90: 2.46 µM

O=C(c1cc2nc(-c3ccccc3)cc(-c3ccccc3)n2n1)N1CCN(C(=O)c2ccco2)CC1
IC50: 5.92 µM | IC90: 17.6 µM | CC50: > 40 µM

COc1ccccc1C(=O)Nc1nnc(-c2ccc(Cl)cc2)o1
IC50: 16.9 µM | IC90: > 100 µM | CC50: > 40 µM

Oc1cccc2ccc(/C=C/c3ccc(Br)s3)nc12
IC50: 2.56 µM | IC90: > 100 µM | CC50: 32.4 µM

CCOc1ccc(N=c2scc(-c3ccccc3)n2CCO)cc1
IC50: 35.1 µM | IC90: > 100 µM

Nc1nc2ccccc2n1C(=O)c1ccc(F)cc1
IC50: 1.93 µM | IC90: 4.15 µM | CC50: > 40 µM

CCOC(=O)c1ccc(NC(=O)CCc2ccc(CC)o2)cc1
IC50: 2.25 µM | IC90: 17.2 µM

O=c1[nH]c(=O)n(Cc2ccccc2Cl)c(O)c1/C=C1/C=CC=N1
IC50: < 0.391 µM | IC90: 3.23 µM | CC50: 27.2 µM

O=[N+]([O-])c1ccc(Sc2nc3ccccc3o2)c([N+](=O)[O-])c1
IC50: 3.69 µM | IC90: 5.16 µM | CC50: 8.69 µM

O=C(CSc1nc2ccccc2[nH]1)N1c2ccccc2Sc2ccccc21
IC50: 17.4 µM | IC90: > 100 µM | CC50: > 40 µM

Cn1c2c(c(=O)n(C)c1=O)C(C(F)(F)F)(C(F)(F)F)N=C(c1ccc(Cl)cc1)N2
IC50: 4.92 µM | IC90: 6.68 µM | CC50: 2.61 µM

O=C(CCc1ccc(Oc2cc([N+](=O)[O-])cc([N+](=O)[O-])c2)cc1)N1CCCCCC1
IC50: 7.53 µM | IC90: 15.6 µM | CC50: 37.2 µM

O=C(/C=C/c1cn(CC(O)CN2CCCCC2)c2ccccc12)c1ccccc1 (stereo not given)
IC50: 2.94 µM | IC90: 3.34 µM | CC50: 29.5 µM

O=C1c2cccc3c([N+](=O)[O-])ccc(c23)C(=O)N1c1ccccn1
IC50: 7.34 µM | IC90: 10.5 µM | CC50: 12.2 µM

O=C(CC(Nc1ccc(F)cc1)C(=O)OCC(=O)c1cccs1)c1ccccc1 (stereo not given)
IC50: 67.1 µM | IC90: > 100 µM

O=C(Nc1nnc(SCc2ccc(F)cc2)s1)c1cnccn1
IC50: 15.6 µM | IC90: > 100 µM | CC50: > 40 µM

COc1ccc(NC(=O)COC(=O)CCCOc2ccc(Cl)cc2Cl)cc1Cl
IC50: 80.6 µM | IC90: > 100 µM

O=C(Nc1ccc(-c2csc(Nc3cccc(C(F)(F)F)c3)n2)cc1)c1cc([N+](=O)[O-])cc(C(F)(F)F)c1
IC50: 7.37 µM | IC90: > 100 µM | CC50: 20.2 µM

O=C(c1coc2ccc(O)cc12)C1CC1
IC50: 27.5 µM | IC90: > 100 µM

Cc1cc(NC(=O)c2sccc2C)n(-c2nc3ccccc3[nH]2)n1
IC50: < 0.391 µM | IC90: 18.1 µM | CC50: 31.2 µM

c1ccc(-c2nc(N3CCCCCC3)nc(-n3ccnc3)n2)cc1
IC50: 0.253 µM | IC90: 1.9 µM | CC50: 30 µM

COc1ccccc1N1CCN(c2ncc(C(=O)N3CCN(c4cccc(Cl)c4)CC3)c3ccccc23)CC1
CC50: > 40 µM

CN(C)CCNc1nc2sc3c(c2c(=O)n1CCc1ccccc1)CCCCC3
IC50: 8.57 µM | IC90: 11.1 µM | CC50: 12 µM

CCCCCCCCC/C(=N\O)c1ccccn1
IC50: 1.55 µM | IC90: 1.68 µM | CC50: 13.2 µM

O=C(c1ccc(COc2ccc(Cl)cc2)o1)N1CCN(Cc2ccc3c(c2)OCO3)CC1
IC50: 10.8 µM | IC90: 21.9 µM | CC50: > 40 µM

CCOC(=O)c1cnc(Nc2nc3ccccc3o2)nc1C
IC50: 20.4 µM | IC90: > 100 µM | CC50: 22.5 µM

Cc1ccc(C(=O)Nc2nnc(-c3ccncc3)o2)cc1
IC50: 5.94 µM | IC90: 6.95 µM | CC50: > 40 µM

NC1=NC[C@H](CC2CCCCC2)N1CCc1cc(C(F)(F)F)cc(C(F)(F)F)c1
IC50: 8.62 µM | IC90: 11 µM | CC50: 27.4 µM

COc1ccc(-c2csc(-c3cccs3)n2)cc1OC
IC50: 11.3 µM | IC90: > 100 µM

O=C(Cc1ccc([N+](=O)[O-])cc1)Nc1cc(C(F)(F)F)cc(C(F)(F)F)c1
IC50: 0.369 µM | IC90: > 100 µM | CC50: 20.8 µM

Cc1cccc(/C=c2\s/c(=C\C(=O)C(C)(C)C)[nH]c2=O)c1
IC50: 0.465 µM | IC90: 11.6 µM | CC50: 29 µM

O=C(Nc1cccc2ccccc12)c1ccc([N+](=O)[O-])s1
IC50: 51.4 µM | IC90: > 100 µM

CCn1c(/C=C/c2ccc([N+](=O)[O-])o2)nc2ccccc2c1=O
IC50: < 0.195 µM | IC90: 0.383 µM | CC50: 15.6 µM

Cc1c(C(=O)Nc2nc3ccccc3[nH]2)oc2ccccc12
IC50: 1.29 µM | IC90: 4.5 µM | CC50: > 40 µM

O=C(/C=C/c1cccnc1)/C=C/c1cccnc1
IC50: 0.909 µM | IC90: 1.33 µM | CC50: 3.09 µM

Cc1ccc(CSc2nnc(CCCCCNC(=O)OC(C)(C)C)o2)cc1
IC50: 11.7 µM | IC90: 13.6 µM

Cc1sc2nc(-c3ccccn3)[nH]c(=O)c2c1-c1ccccc1
IC50: 0.69 µM | IC90: 1.69 µM | CC50: 15.2 µM

O=C(/C=C/c1ccnc2ccccc12)c1cccs1
IC50: 17.6 µM | IC90: 24.6 µM | CC50: > 40 µM

O=[N+]([O-])c1ccc(N=Nc2c(Cl)cc(O)cc2Cl)cc1
IC50: 1.64 µM | IC90: 2.41 µM | CC50: 5.17 µM

Cc1ccc(OC(=O)c2ccc(Br)o2)cc1
IC50: 65.4 µM | IC90: > 100 µM

COc1cc(OC)c2c(-c3ccccc3)cc(=O)oc2c1C(CCN1CCCCC1)c1ccc(N(C)C)cc1 (stereo not given)
IC50: 8.78 µM | IC90: 12.1 µM | CC50: 20.4 µM

Cc1cc(C)c(C2C3=C(Nc4c2c(C)nn4-c2ccccn2)c2ccccc2C3=O)c(C)c1 (stereo not given)
IC50: 5.63 µM | IC90: 8.83 µM | CC50: > 40 µM

COC(=O)c1ccc(NC(=O)CSC2=NCCN2)cc1
IC90: > 100 µM
